# Reference: ChEMBL document CHEMBL2086310, “Alkaloids from Pachysandra terminalis inhibit breast cancer invasion and have potential for development as antimetastasis therapeutic agents” (J Nat Prod, 2012)
# The source made the active and inactive calls. No cut-off for these calls is given here.
# Biological target: Integrin beta-1 (Homo sapiens) (UniProt P05556)
# Assay: Inhibition of integrin beta1 phosphorylation in human […] cells at 1 to 10 uM incubated for 24 hrs by Western blot
# Type: cell-based
# Chain of Integrin beta-1 (Homo sapiens) (P05556 whole entry): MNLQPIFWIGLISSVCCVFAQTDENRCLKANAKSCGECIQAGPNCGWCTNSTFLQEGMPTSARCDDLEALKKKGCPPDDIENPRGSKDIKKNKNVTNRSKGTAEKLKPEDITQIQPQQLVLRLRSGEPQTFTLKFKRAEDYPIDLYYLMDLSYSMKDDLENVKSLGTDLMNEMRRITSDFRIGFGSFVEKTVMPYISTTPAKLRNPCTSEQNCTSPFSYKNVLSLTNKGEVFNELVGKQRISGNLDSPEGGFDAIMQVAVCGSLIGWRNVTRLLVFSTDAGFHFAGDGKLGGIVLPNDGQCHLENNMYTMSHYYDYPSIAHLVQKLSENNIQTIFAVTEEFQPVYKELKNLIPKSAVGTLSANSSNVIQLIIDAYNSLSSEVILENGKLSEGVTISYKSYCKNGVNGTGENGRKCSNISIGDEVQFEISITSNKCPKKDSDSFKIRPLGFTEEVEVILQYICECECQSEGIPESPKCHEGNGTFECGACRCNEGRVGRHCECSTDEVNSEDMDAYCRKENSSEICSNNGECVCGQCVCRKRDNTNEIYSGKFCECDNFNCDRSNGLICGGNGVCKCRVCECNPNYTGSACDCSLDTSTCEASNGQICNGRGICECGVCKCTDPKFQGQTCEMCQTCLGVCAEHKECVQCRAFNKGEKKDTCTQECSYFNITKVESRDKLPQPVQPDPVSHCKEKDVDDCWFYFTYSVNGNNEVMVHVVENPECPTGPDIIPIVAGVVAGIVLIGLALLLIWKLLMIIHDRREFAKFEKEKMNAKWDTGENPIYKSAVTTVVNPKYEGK
row,inhibition,Compound
1,Dose-dependent effect,CC(C)[C@H]1CN([C@H]2CC[C@@]3(C)[C@@H](CC[C@@H]4[C@@H]3CC[C@]3(C)[C@@H]([C@H](C)N(C)C)[C@@H](O)C[C@@H]43)C2=O)C1=O [TERMINAMINE A]

# System: MDA-MB-231
# Assay: Inhibition of epithelial growth factor-induced cell migration of human MDA-MB-231 cells at 10 uM pre-incubated for 24 hrs by cell invasion assay
# Type: functional, cell-based
row,Compound,inhibition
1,CC(=O)[C@H]1CC[C@H]2[C@@H]3CC[C@H]4C[C@H](N(C)C(=O)C=C(C)C)CC[C@]4(C)[C@H]3CC[C@]12C,inactive
2,CC(=O)[C@H]1CC[C@H]2[C@@H]3CC[C@H]4C[C@]5(CC[C@]4(C)[C@H]3CC[C@]12C)c1ccccc1C(=O)N5C,inactive
3,CC(=O)[C@H]1CC[C@H]2[C@@H]3CC[C@H]4C[C@H](N(C)C(=O)c5ccccc5)CC[C@]4(C)[C@H]3CC[C@]12C,inactive

# System: MDA-MB-231
# Assay: Inhibition of epithelial growth factor-induced cell migration of human MDA-MB-231 cells pre-incubated for 24 hrs by cell invasion assay
# Type: functional, cell-based
row,IC50,Compound
1,320 nM,CC(C)[C@@H]1CN([C@H]2CC[C@@]3(C)[C@@H](CC[C@@H]4[C@@H]3CC[C@]3(C)[C@@H]([C@H](C)N(C)C)CC[C@@H]43)C2=O)C1=O [PACHYSTERMINE A]
2,80 nM,CC(=O)O[C@@H]1C[C@H](N2C[C@H](C(C)C)C2=O)[C@H](O)[C@@H]2CC[C@@H]3[C@H]([C@H](OC(=O)CC(C)C)C[C@]4(C)[C@@H]([C@H](C)N(C)C)[C@@H](O)C[C@@H]34)[C@@]12C [TERMINAMINE C]
3,1740 nM,C/C=C1\C(=O)C[C@H]2[C@@H]3CC[C@H]4C[C@@H](N(C)C)CC[C@]4(C)[C@H]3CC[C@]12C [Z-salignone]
4,870 nM,C/C=C1/C(=O)C[C@H]2[C@@H]3CC[C@H]4C[C@@H](N(C)C)CC[C@]4(C)[C@H]3CC[C@]12C
5,180 nM,CC(C)[C@H]1CN([C@H]2CC[C@@]3(C)[C@@H](CC[C@@H]4[C@@H]3CC[C@]3(C)[C@@H]([C@H](C)N(C)C)[C@@H](O)C[C@@H]43)C2=O)C1=O [TERMINAMINE A]
6,190 nM,CC(C)[C@@H]1CN([C@H]2CC[C@@]3(C)[C@@H](CC[C@@H]4[C@@H]3CC[C@]3(C)[C@@H]([C@H](C)N(C)C)CC[C@@H]43)[C@H]2O)C1=O [PACHYSTERMINE B]
7,410 nM,CC(C)=CC(=O)N[C@H]1CC[C@@]2(C)[C@@H](CC[C@@H]3[C@@H]2CC[C@]2(C)[C@@H]([C@H](C)N(C)C)CC[C@@H]32)C1 [EPIPACHYSAMINE E]
8,70 nM,CC(C)=C1CN([C@@H]2CC[C@@]3(C)[C@@H](CC[C@@H]4[C@@H]3CC[C@]3(C)[C@@H]([C@H](C)N(C)C)CC[C@@H]43)[C@H]2O)C1=O [TERMINAMINE E]
9,380 nM,O=c1cc(N2CCOCC2)oc2c(-c3ccccc3)cccc12 [LY-294002]
10,200 nM,CC(C)=C1CN([C@@H]2CC[C@@]3(C)[C@@H](CC[C@@H]4[C@@H]3CC[C@]3(C)[C@@H]([C@H](C)N(C)C)[C@@H](O)C[C@@H]43)[C@H]2O)C1=O [TERMINAMINE D]
11,200 nM,CC(=O)O[C@@H]1C[C@]2(C)[C@@H]([C@H](C)N(C)C)[C@@H](O)C[C@H]2[C@@H]2CC[C@H]3[C@@H](O)[C@@H](N4C[C@H](C(C)C)C4=O)C[C@@H](OC(C)=O)[C@]3(C)[C@H]21 [TERMINAMINE B]

row,Compound,IC50
1,C[C@@H]([C@H]1CC[C@H]2[C@@H]3CC[C@H]4[C@H](O)[C@@H](O)CC[C@]4(C)[C@H]3CC[C@]12C)N(C)C [TERMINALINE],360 nM
2,C[C@@H]([C@H]1CC[C@H]2[C@@H]3CC[C@H]4C[C@@H](NC(=O)c5cccnc5)CC[C@]4(C)[C@H]3CC[C@]12C)N(C)C [EPIPACHYSAMINE B],350 nM
